From patent US10688077B2, “Inflammasome activation in myelodysplastic syndromes” (H. Lee Moffitt Cancer Center and Research Institute, Inc., priority 2015, dated 2020)
Values belong to the compound of their own block, whether it stands above or below them.

Columns and labels:
[1] = system: SF3B1-K700E mutant-expressing BM cells; experiment: ASC staining to detect inflammasome formation by flow cytometry, SF3B1-K700E BM cells; format: cell-based, mice; conditions: treated 24 hours
Protocol: Staining was carried out as described ([…], et al. J Immunol. 2015 194(1):455-62). Briefly, cell pellets were resuspended in 1 mL of prewarmed BD Permeabilization Buffer III, and incubated on ice for 30 minutes. Cells were washed 2× with staining buffer. Following washing, cells were stained with rabbit-anti-ASC primary antibodies at a 1:1500 dilution and incubated for 90 minutes. Cells were washed, stained with secondary antibodies at a dilution of 1:1500, and incubated for 45 minutes. Cells were washed, and sample acquisitions were carried out using a BD LSR II flow cytometer and FACSDiva software.

[2] = system: SF3B1-K700E mutant-expressing BM cells; experiment: Nuclear β-catenin confocal microscopy, SF3B1-K700E BM cells; format: cell-based, mice; conditions: treated 24 hours
Protocol: (§1) MDS and normal donor BM-MNC and mouse BM cells were stained with 30×FAM-FLICA® Caspase-1 solution at a ratio of 1:30 for 2 hours at 37° C. Cells were washed and cytospins were generated using a 5 minutes centrifugation at 450 rpm. Slides were fixed at 37° C. for 10 minutes using BD Cytofix Fixation Buffer (BD Biosciences), and subsequently washed using PBS. Cells were permeabilized with 0.1% Triton X-100/2% BSA in PBS for 15 minutes at room temperature. After washing with PBS, cells were blocked using 2% BSA in PBS for 30 minutes at room temperature, and washed again. Cells were incubated with the appropriate primary antibody overnight (1:400 for NLRP3, 1:20 for β-catenin) at 4° C. The next day, cells were washed with PBS and incubated with the appropriate secondary antibodies (1:500) for 1 hour at room temperature. After washing, cells were covered with ProLong Gold Antifade Reagent with DAPI prior to the addition of a coverslip (Life Technologies). Co-localization of a-caspase-1 with NLRP3 inflammasome complexes was assessed using a Leica TCS SP5 AOBS Laser Scanning Confocal microscope (Leica Microsystems). Analysis of the inflammasome images was performed with Definiens Developer 2.0 (Definiens AG). The software was used to segment cells based on brightness and size thresholds, followed by a watershed segmentation algorithm. […]

[3] = system: U2AF1 S34F mutant expressing TF-1 cells; experiment: Nuclear β-catenin confocal microscopy in U2AF1-S34F mutant cells; format: cell-based; conditions: treated 24 hours prior to staining
[4] = system: SF3B1-K700E-expressing mutant BM cells; experiment: ROS detection by flow cytometry, SF3B1-K700E BM cells; format: cell-based, mice
Description: (§2) ROS were detected using CM-H2DCFDA and CellROX® Deep Red Reagent according to manufacturer's protocol (Life Technologies).

normal BM-MNC [5] = experiment: Nuclear β-catenin confocal microscopy in normal BM-MNC; format: cell-based, human
Protocol: as §1

U937 cells [6] = experiment: NLRP3 inflammasome confocal microscopy in U937 cells; format: cell-based; conditions: 5 μg/mL, 24 hours
normal BM-MNC [7] = experiment: qPCR of pyroptosis-associated genes in normal BM-MNC treated with rhS100A9; format: cell-based, human; conditions: 1 μg/mL, 24 hours, n=2
Protocol: PCR RNA was isolated from BM-MNC using the RNeasy Mini Kit (Qiagen). cDNA was produced using the iScript cDNA Synthesis Kit (Bio-Rad). Sequences for primers can be found in Table 1. GAPDH mRNA was used for transcript normalization. cDNA was amplified using the iQ SYBR Green Supermix and the CFX96 Real-Time PCR Detection System (Bio-Rad). PCR conditions were as follows: 10 minutes at 95° C., followed by 40 cycles of amplification (15 seconds at 95° C. and 1 minute at 60° C.). Relative gene expression was calculated using the […] method.

[8] = system: BM cells isolated from WT mice; experiment: a-caspase-1/NLRP3 confocal microscopy in WT mouse BM cells treated with rhS100A9; format: cell-based; conditions: 5 μg/mL, 24 hours
Protocol: (§3) MDS and normal donor BM-MNC and mouse BM cells were stained with 30×FAM-FLICA® Caspase-1 solution at a ratio of 1:30 for 2 hours at 37° C. Cells were washed and cytospins were generated using a 5 minutes centrifugation at 450 rpm. Slides were fixed at 37° C. for 10 minutes using BD Cytofix Fixation Buffer (BD Biosciences), and subsequently washed using PBS. Cells were permeabilized with 0.1% Triton X-100/2% BSA in PBS for 15 minutes at room temperature. After washing with PBS, cells were blocked using 2% BSA in PBS for 30 minutes at room temperature, and washed again. Cells were incubated with the appropriate primary antibody overnight (1:400 for NLRP3, 1:20 for β-catenin) at 4° C. The next day, cells were washed with PBS and incubated with the appropriate secondary antibodies (1:500) for 1 hour at room temperature. After washing, cells were covered with ProLong Gold Antifade Reagent with DAPI prior to the addition of a coverslip (Life Technologies). Co-localization of a-caspase-1 with NLRP3 inflammasome complexes was assessed using a Leica TCS SP5 AOBS Laser Scanning Confocal microscope (Leica Microsystems). Analysis of the inflammasome images was performed with Definiens Developer 2.0 (Definiens AG). The software was used to segment cells based on brightness and size thresholds, followed by a watershed segmentation algorithm. Intensity values and Pearson's correlation coefficient were extracted from the segmented cells. For β-catenin image analysis, confocal images were imported into Definiens Tissue Studio v3.0, 64 Dual in .tif format. Cells were separated from background using the RGB thresholds. Nuclei were identified by setting thresholds in the DAPI channel. Typical cells averaged 60 microns. The red intensity (β-catenin) in the nucleus and cytoplasm was established by setting thresholds to low, medium and high in the red channel on a scale of 0-255 in the red channel.

U937 cells [9] = experiment: S100A9 flow cytometry experiments in U937 cells (a-caspase-1/annexin-V); format: cell-based
Protocol: Monocytic U937 cells were treated with the indicated concentrations of rhS100A9 for 24 hours, or with 5 μg/mL rhS100A9 for the indicated time points. Subsequently, cells were stained with 30×FAM-FLICA® Caspase-1 solution at a ratio of 1:30 for 2 hours at 37° C. Cells were washed, resuspended in 1× binding buffer, and stained with Annexin-V:PE at a dilution of 1:30 for 15 minutes at room temperature. 1× binding buffer was added to a final volume of 350 μL. Sample acquisitions were carried out using a BD FACSCalibur flow cytometer (BD Biosciences). Data were analyzed using FlowJo 9.7.5 software.

U937 cells [10] = experiment: Pore formation, ethidium bromide uptake in U937 cells; format: cell-based; conditions: 5 μg/mL rhS100A9, 12.5 μg/mL ethidium bromide
U937 cells [11] = experiment: Comet assay (DNA damage) in U937 cells; format: cell-based; conditions: 5 μg/mL, 24 hours, compared to untreated cells
Protocol: Monocytic U937 cells were treated with 5 μg/mL rhS100A9 for 24 hr.
DNA damage was measured by single cell gel electrophoresis using alkaline CometAssay® according to manufacturer's protocol (Trevigen Inc.).

normal BM-MNC [12] = experiment: a-caspase-1/NLRP3 confocal microscopy in normal BM-MNC treated with rhS100A9; format: cell-based, human; conditions: 5 pig/mL rhS100A9, 24 hours
Protocol: as §3

U937 cells [13] = experiment: ROS detection by flow cytometry in U937 cells; format: cell-based; conditions: 5 μg/mL, 24 hours, compared to untreated cells
Description: as §2

U937 cells [14] = experiment: Nuclear β-catenin confocal microscopy in U937 cells; format: cell-based; conditions: 5 μg/mL, 24 hours, compared to untreated cells

Compound: c1ccc2c(c1)[I+]c1ccccc1-2 [DPI]
inflammasome formation (ASC oligomerization) [1]: significantly reduced | percentage of cells with elevated levels of nuclear β-catenin [2]: significantly reduced | β-catenin activation (nuclear β-catenin) [3]: effectively reduced β-catenin activation | ROS MFI [4]: extinguished below the level of WT controls | mean percentage of ROS+ cells [4]: extinguished below the level of WT controls

Compound: CC(=O)N[C@@H](CS)C(=O)O [NAC, N-acetylcysteine]
inflammasome formation (ASC oligomerization) [1]: significantly reduced | S100A9-triggered nuclear translocation of β-catenin (normal BM-MNC [5]; S100A9 treated normal BM-MNC): abolished | percentage of cells with elevated levels of nuclear β-catenin [2]: significantly reduced | β-catenin activation (nuclear β-catenin) [3]: effectively reduced β-catenin activation | ROS MFI [4]: extinguished below the level of WT controls | mean percentage of ROS+ cells [4]: extinguished below the level of WT controls

a-caspase-1 levels induced (normal BM-MNC [12]): 2.5 fold | formation of NLRP3 inflammasomes induced (normal BM-MNC [12]): 2.9 fold | NLRP3 levels induced (normal BM-MNC [12]; p=0.064): 47.1 fold
Compound: rhS100A9: recombinant human S100A9, DAMP/alarmin protein, TLR4 and CD33 ligand
levels of NLRP3 inflammasome complexes (U937 cells [6]): markedly increased | expression of pyroptosis-associated genes (normal BM-MNC [7]): significantly up-regulated | inflammasome complexes ([8]; p=0.023): marked induction | MFI of NLRP3 ([8]; versus controls, p=0.017): significantly increased | MFI of a-caspase-1 ([8]; versus controls, p=7.5×10^−3): significantly increased | levels of nuclear β-catenin (normal BM-MNC [5]; 5 μg/mL, 24 hours, compared to controls): elevated levels | activation of caspase-1 (U937 cells [9]; 5 μg/mL, over time): time-dependent increase | fraction of pyroptotic cells (U937 cells [9]; increasing concentrations, 24 hours): concentration-dependent increase | uptake of ethidium bromide (U937 cells [10]): rapid and substantial uptake | increase in DNA damage (U937 cells [11]): 4.1 fold | increase in the mean percentage of ROS-positive cells (U937 cells [13]): 2.9 fold | levels of nuclear (activated) β-catenin (U937 cells [14]): marked increases
